In US20060173048A1, “Imidazole derivatives” (priority 2005, published 2006):

Compound	melting point
CCn1c(-c2ccnc3ccccc23)nc(-c2ccncc2)c1-c1ccc(Cl)cc1 [Example 32, 4-[5-(4-Chloro-phenyl)-1-ethyl-4-pyridin-4-yl-1H-imidazol-2-yl]-quinoline]	167 to 169 °C
Cc1ccc(-c2c(-c3ccncc3)nc(-c3c(Cl)cccc3Cl)n2C)cc1 [Example 1, 4-[2-(2,6-Dichloro-phenyl)-1-methyl-5-(4-methyl-phenyl)-1H-imidazol-4-yl]-pyridine]	214 to 217 °C
FC(F)(F)Cn1c(-c2c(Cl)cccc2Cl)nc(-c2ccncc2)c1-c1ccc(Cl)cc1 [Example 25, 4-[5-(4-Chloro-phenyl)-2-(2,6-dichloro-phenyl)-1-(2,2,2-trifluoro-ethyl)-1H-imidazol-4-yl]-pyridine]	213 to 214 °C
CCn1c(-c2c(C)cc(C)cc2C)nc(-c2ccncc2)c1-c1ccc(C(F)(F)F)cc1 [Example 13, 4-[1-Ethyl-5-(4-trifluoromethyl-phenyl)-2-(2,4,6-trimethyl-phenyl)-1H-imidazol-4-yl]-pyridine]	227 to 228 °C
CCn1c(C(O)(c2cccc(F)c2)c2cccc(F)c2)nc(-c2ccncc2)c1-c1ccc(Cl)cc1 [Example 46, [5-(4-Chloro-phenyl)-1-ethyl-4-pyridin-4-yl-1H-imidazol-2-yl]-bis-(3-fluoro-phenyl)-methanol]	225 to 227 °C
C=CCn1c(-c2c(C)cc(C)cc2C)nc(-c2ccncc2)c1-c1ccc(Cl)cc1 [Example 21, 4-[1-Allyl-5-(4-chloro-phenyl)-2-(2,4,6-trimethyl-phenyl)-1H-imidazol-4-yl]-pyridine]	151 to 154 °C
CCn1c(-c2ccc(C(F)(F)F)cc2C(F)(F)F)nc(-c2ccncc2)c1-c1ccc(Cl)cc1 [Example 30, 4-[2-(2,4-Bis-trifluoromethyl-phenyl)-5-(4-chloro-phenyl)-1-ethyl-1H-imidazol-4-yl]-pyridine]	148 to 150 °C
CCn1c(C(O)(C(C)C)C(C)C)nc(-c2ccncc2)c1-c1ccc(Cl)cc1 [Example 41, 3-[5-(4-Chloro-phenyl)-1-ethyl-4-pyridin-4-yl-1H-imidazol-2-yl]-2,4-dimethyl-pentan-3-ol]	221 to 223 °C
CCn1c(C(O)(c2ccccc2)c2ccccc2)nc(-c2ccncc2)c1-c1ccc(Cl)cc1 [Example 44, [5-(4-Chloro-phenyl)-1-ethyl-4-pyridin-4-yl-1H-imidazol-2-yl]-diphenyl-methanol]	222 to 223 °C
CCC(CC)c1nc(-c2ccncc2)c(-c2ccc(Cl)cc2)n1C [Example 36, 4-[5-(4-Chloro-phenyl)-2-(1-ethyl-propyl)-1-methyl-1H-imidazol-4-yl]-pyridine]	100 to 102 °C
CCn1c(-c2c(C)cc(C)cc2C)nc(-c2ccncc2)c1-c1ccc(Cl)cc1 [Example 12, 4-[5-(4-Chloro-phenyl)-1-ethyl-2-(2,4,6-trimethyl-phenyl)-1H-imidazol-4-yl]-pyridine]	226 to 227 °C
CCn1c(C(c2ccccc2)c2ccccc2)nc(-c2ccncc2)c1-c1ccc(Cl)cc1 [Example 39, 4-[2-Benzhydryl-5-(4-chloro-phenyl)-1-ethyl-1H-imidazol-4-yl]-pyridine]	199 to 200 °C
Cc1ccc(-c2c(-c3ccncc3)nc(-c3c(C)cc(C)cc3C)n2C)cc1 [Example 2, 4-[1-Methyl-5-(4-methyl-phenyl)-2-(2,4,6-trimethyl-phenyl)-1H-imidazol-4-yl]-pyridine]	204 to 207 °C
CCn1c(-c2ccccc2)nc(-c2ccncc2)c1-c1ccc(Cl)cc1 [Example 9, 4-[5-(4-Chloro-phenyl)-1-ethyl-2-phenyl-1H-imidazol-4-yl]-pyridine]	267 to 270 °C
OCCCn1c(-c2c(Cl)cccc2Cl)nc(-c2ccncc2)c1-c1ccc(Cl)cc1 [Example 29, 3-[5-(4-Chloro-phenyl)-2-(2,6-dichloro-phenyl)-4-pyridin-4-yl-imidazol-1-yl]-propan-1-ol]	233 to 235 °C
CCn1c(C(c2cccc(F)c2)c2cccc(F)c2)nc(-c2ccncc2)c1-c1ccc(Cl)cc1 [Example 53, 4-[2-[Bis-(3-fluoro-phenyl)-methyl]-5-(4-chloro-phenyl)-1-ethyl-1H-imidazol-4-yl]-pyridine]	184 to 186 °C
CCn1c(-c2c(C)cccc2C)nc(-c2ccncc2)c1-c1ccc(Cl)cc1 [Example 14, 4-[5-(4-Chloro-phenyl)-2-(2,6-dimethyl-phenyl)-1-ethyl-1H-imidazol-4-yl]-pyridine]	171 to 173 °C
C=CCn1c(-c2c(C)cc(C)cc2C)nc(-c2ccncc2)c1-c1ccc(C)cc1 [Example 23, 4-[1-Allyl-5-(4-methyl-phenyl)-2-(2,4,6-trimethyl-phenyl)-1H-imidazol-4-yl]-pyridine]	115 to 118 °C
CCn1c(-c2ccccc2Br)nc(-c2ccncc2)c1-c1ccc(Cl)cc1 [Example 16, 4-[2-(2-Bromo-phenyl)-5-(4-chloro-phenyl)-1-ethyl-1H-imidazol-4-yl]-pyridine]	144 to 147 °C
CCn1c(-c2c(Cl)cccc2Cl)nc(-c2ccnc(OC)c2)c1-c1ccc(Cl)cc1 [Example 55, 4-[5-(4-Chloro-phenyl)-2-(2,6-dichloro-phenyl)-1-ethyl-1H-imidazol-4-yl]-2-methoxy-pyridine]	138 to 140 °C
C=CCC(O)(CC=C)c1nc(-c2ccncc2)c(-c2ccc(Cl)cc2)n1CC [Example 42, 4-[5-(4-Chloro-phenyl)-1-ethyl-4-pyridin-4-yl-1H-imidazol-2-yl]-hepta-1,6-dien-4-ol]	159 to 160 °C
CCCn1c(-c2c(Cl)cccc2Cl)nc(-c2ccncc2)c1-c1ccc(Cl)cc1 [Example 49, 4-[5-(4-Chloro-phenyl)-2-(2,6-dichloro-phenyl)-1-propyl-1H-imidazol-4-yl]-pyridine]	220 to 222 °C
CCn1c(C(O)(Cc2ccccc2)Cc2ccccc2)nc(-c2ccncc2)c1-c1ccc(Cl)cc1 [Example 48, 2-[5-(4-Chloro-phenyl)-1-ethyl-4-pyridin-4-yl-1H-imidazol-2-yl]-1,3-diphenyl-propan-2-ol]	116 to 117 °C
CCn1c(C(O)(c2cccc(C(F)(F)F)c2)c2cccc(C(F)(F)F)c2)nc(-c2ccncc2)c1-c1ccc(Cl)cc1 [Example 45, [5-(4-Chloro-phenyl)-1-ethyl-4-pyridin-4-yl-1H-imidazol-2-yl]-bis-(3-trifluoromethyl-phenyl)-methanol]	193 to 195 °C
CCn1c(-c2c(Cl)cccc2Cl)nc(-c2ccncc2)c1-c1ccc(Cl)cc1 [Example 5, 4-[5-(4-Chloro-phenyl)-2-(2,6-dichloro-phenyl)-1-ethyl-1H-imidazol-4-yl]-pyridine]	193 to 196 °C
CCn1c(-c2c(C)cc(C)cc2C)nc(-c2ccncc2)c1-c1ccc(C)cc1 [Example 4, 4-[1-Ethyl-5-(4-methyl-phenyl)-2-(2,4,6-trimethyl-phenyl)-1H-imidazol-4-yl]-pyridine]	137 to 140 °C
CCCn1c(-c2c(Cl)cccc2Cl)nc(-c2ccncc2)c1-c1ccc(C)cc1 [Example 50, 4-[2-(2,6-Dichloro-phenyl)-1-propyl-5-(4-methyl-phenyl)-1H-imidazol-4-yl]-pyridine]	200 to 201 °C
